Several values for one entry are separate records, joined by “and”; a condition that tells them apart may be missing. Identical values can stand only once.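 Each compound was tested at five concentrations against cells in 96-well plates for 48 hours. GI50: concentration for 50% inhibition of growth. The concentration for full growth arrest is given as TGI.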
Legend:
Assay in all cases: growth of human tumour cells (NCI), 48 h
LOX IMVI melanoma = tested on: LOX IMVI melanoma
HCT-15 colon = tested on: HCT-15 colon
IGROV1 ovarian = tested on: IGROV1 ovarian
A498 renal = tested on: A498 renal
KM12 colon = tested on: KM12 colon
NCI-H23 lung = tested on: NCI-H23 lung
HCC-2998 colon = tested on: HCC-2998 colon
SK-MEL-2 melanoma = tested on: SK-MEL-2 melanoma
T-47D breast = tested on: T-47D breast
DU-145 prostate = tested on: DU-145 prostate

| SMILES | GI50 (LOX IMVI melanoma) | TGI (LOX IMVI melanoma) | GI50 (HCT-15 colon) | TGI (HCT-15 colon) | GI50 (IGROV1 ovarian) | TGI (IGROV1 ovarian) | GI50 (A498 renal) | TGI (A498 renal) | GI50 (KM12 colon) | TGI (KM12 colon) | GI50 (NCI-H23 lung) | TGI (NCI-H23 lung) | GI50 (HCC-2998 colon) | GI50 (SK-MEL-2 melanoma) | TGI (SK-MEL-2 melanoma) | GI50 (T-47D breast) | TGI (T-47D breast) | GI50 (DU-145 prostate) | TGI (DU-145 prostate) | TGI (HCC-2998 colon) |
| --- | --- | --- | --- | --- | --- | --- | --- | --- | --- | --- | --- | --- | --- | --- | --- | --- | --- | --- | --- | --- |
| C=C[C@H]1CCC/C=C/[C@@H]2C[C@H](O)C[C@H]2[C@H](O)/C=C/C(=O)O1 | 0.0222 µM | 0.0528 µM | 0.0325 µM | > 34.7 µM | 0.0655 µM | > 100 µM | 0.015 µM | 0.0528 µM | 0.022 µM | 0.0507 µM | 0.0393 µM | 6 µM | 0.0316 µM | 0.0303 µM | 0.0944 µM | 0.0285 µM | 0.0973 µM | 0.0771 µM | > 100 µM |  |
| Cc1cc(I)cc(CN(C)CCN2CCCC2)c1O | 17.8 µM | 35.2 µM | 24.4 µM | 73.7 µM | 20.9 µM | 53.8 µM | 32.7 µM | 67.2 µM | 32.8 µM | 81.3 µM | 39 µM | > 100 µM | 16 µM | 25.6 µM | 63.1 µM | 21.5 µM | 76 µM | 32.3 µM | > 100 µM | 35.9 µM |
| O=P([O-])(O)OP(=O)([O-])O.[NH-][C@@H]1CCCC[C@H]1[NH-].[Pt+4] | 15.6 µM and 6.86 µM | > 100 µM | 11.2 µM and 8.21 µM | > 100 µM | 12.3 µM and 4.8 µM | > 100 µM | > 100 µM and 18.3 µM | > 100 µM | 50.8 µM and 24 µM | > 100 µM | 18.4 µM and 12.3 µM | > 100 µM and 91.1 µM | 81 µM and 10.6 µM | > 53.2 µM | > 100 µM | 18.4 µM and 4.82 µM | > 100 µM and 39.5 µM | 25.9 µM and 12.2 µM | > 100 µM | > 100 µM and 64.5 µM |
| Cc1cc(N2CCCC2)nc(NC2CCCC(Nc3ccnc4cc(Cl)ccc34)C2)n1 (configuration not stated) | 0.681 µM | 2.1 µM | 1.02 µM | 2.44 µM | 0.967 µM | 3.2 µM | 1.91 µM | 3.48 µM | 1.5 µM | 3.89 µM | 1.59 µM | 4.14 µM | 1.12 µM | 1.7 µM | 3.27 µM | 1.71 µM | 4.83 µM | 1.24 µM | 2.77 µM | 2.68 µM |
| C=C1C(=O)[C@@]23CC1C(O)[C@@H](OC(C)=O)[C@@H]2C1(C)C(OC(C)=O)C[C@@H](OC(C)=O)C(C)(C)[C@@H]1C[C@H]3OC(C)=O (some centres not stated) | 1.82 µg/mL | > 10 µM and 3.31 µg/mL | 2.69 µg/mL | > 10 µM and 8.61 µg/mL | > 10 µM and 13.1 µg/mL | > 10 µM and 27.7 µg/mL | 16.3 µg/mL | > 10 µM and 30.6 µg/mL | > 10 µM and 5.94 µg/mL | > 10 µM and 17.1 µg/mL | 7.86 µM and 2.63 µg/mL | > 10 µM and 7.68 µg/mL | 17.3 µg/mL | > 10 µM and 2.46 µg/mL | > 10 µM and 5.65 µg/mL | 2.14 µg/mL | 4.55 µM and 4.57 µg/mL | 16.9 µg/mL | > 10 µM and 30.6 µg/mL | > 10 µM and 31.3 µg/mL |
| C=C(C)CN(CC#N)CC(=C)C |  | > 100 µM |  | > 100 µM |  | > 100 µM |  | > 100 µM |  | > 100 µM |  | > 100 µM |  |  | > 100 µM |  | > 100 µM |  | > 100 µM | > 100 µM |
| Cc1ccc(C(=O)C(Cl)C(Cl)c2ccc(C)cc2)cc1 (configuration not stated) |  | 3.78 µM |  | 3.73 µM |  | 6.34 µM |  | 30 µM |  | 13.9 µM |  | 23.9 µM |  |  | 36.2 µM |  | 4.86 µM |  | 15.3 µM | 3.92 µM |
| C[C@@H]1N=C(c2ccc(Br)cc2)Nc2nc3ccccn3c2C1=O | 6.34 µM | > 100 µM | 3.64 µM | > 100 µM | 51.9 µM | > 100 µM | 3.26 µM | 38.2 µM | 3.39 µM | > 100 µM | 25.4 µM | > 100 µM | 21.9 µM | 15.7 µM | > 100 µM | 4.62 µM | > 100 µM | 23.2 µM | > 100 µM | > 100 µM |
| Cc1cc(-c2nnc(N)nc2-c2ccc(F)cc2)cc(Cl)n1 | > 100 µM | > 100 µM | > 100 µM | > 100 µM | > 100 µM | > 100 µM | 49 µM | > 100 µM | > 100 µM | > 100 µM | 54.3 µM | > 100 µM | > 100 µM | > 100 µM | > 100 µM | 28.3 µM | > 100 µM | > 100 µM | > 100 µM | > 100 µM |
| Nc1cc(-c2cccc(OC(F)(F)F)c2)nc2ccc(N3CCCC3)cc12 | 0.0528 µM and 0.0485 µM and 0.046 µM |  | 0.0338 µM and 0.0349 µM and 0.0312 µM | 11.5 µM and > 100 µM | 0.0698 µM and 0.0623 µM and 0.0793 µM | 25.3 µM and > 100 µM | 0.0271 µM and 0.023 µM and 0.0266 µM | 0.193 µM and 0.0936 µM and 0.257 µM | 0.0386 µM and 0.0333 µM and 0.0372 µM | 14.9 µM and > 100 µM | 0.0716 µM and 0.0803 µM and 0.0609 µM | 43.1 µM and > 100 µM | 0.037 µM and 0.0351 µM and 0.0371 µM | 0.4 µM and 0.0887 µM and 0.787 µM | 12.8 µM and > 100 µM | 18.8 µM | 92.4 µM | 0.0458 µM and 0.0446 µM and 0.0377 µM | 13.2 µM and > 100 µM and > 57.8 µM |  |
| COc1ccc2c(c1)OC1=C(C(=O)OC1)C2c1cc(OC)c(OC)c(OC)c1 (configuration not stated) | 0.608 µM | > 100 µM | 0.499 µM | > 100 µM | 3.18 µM | > 100 µM | 0.281 µM | 15.1 µM | 0.396 µM | > 89.6 µM | 0.609 µM | > 100 µM | 1.27 µM | 0.518 µM | > 100 µM | 0.489 µM | > 100 µM | 0.529 µM | > 42.4 µM | > 100 µM |
| O=C1c2cc([N+](=O)[O-])ccc2-c2cccc(F)c21 |  | > 100 µM |  | > 100 µM |  | > 100 µM |  | > 100 µM |  | > 100 µM |  | > 100 µM |  |  | 55.7 µM |  | 66.1 µM |  | > 100 µM | > 100 µM |

Source: PubChem BioAssay (NCI)
